Measurements from article PMC5041959, “A high-content EMT screen identifies multiple receptor tyrosine kinase inhibitors with activity on TGFβ receptor” (Oncotarget, 2016).
Read-outs that look alike come from different tables or passages of the source.

Experiments:
ROCK2 = ROCK2 (Homo sapiens, UniProt O75116); assay: Biochemical kinase profiling (33PanQinase radiometric assay)
FGFR1 = FGFR1 (Homo sapiens, UniProt P11362); assay: as above
EGFR = EGFR (Homo sapiens, UniProt P00533); assay: as above
FGFR2 = FGFR2 (Homo sapiens, UniProt P21802); assay: as above
Chain of FGFR2 (P21802 22-821): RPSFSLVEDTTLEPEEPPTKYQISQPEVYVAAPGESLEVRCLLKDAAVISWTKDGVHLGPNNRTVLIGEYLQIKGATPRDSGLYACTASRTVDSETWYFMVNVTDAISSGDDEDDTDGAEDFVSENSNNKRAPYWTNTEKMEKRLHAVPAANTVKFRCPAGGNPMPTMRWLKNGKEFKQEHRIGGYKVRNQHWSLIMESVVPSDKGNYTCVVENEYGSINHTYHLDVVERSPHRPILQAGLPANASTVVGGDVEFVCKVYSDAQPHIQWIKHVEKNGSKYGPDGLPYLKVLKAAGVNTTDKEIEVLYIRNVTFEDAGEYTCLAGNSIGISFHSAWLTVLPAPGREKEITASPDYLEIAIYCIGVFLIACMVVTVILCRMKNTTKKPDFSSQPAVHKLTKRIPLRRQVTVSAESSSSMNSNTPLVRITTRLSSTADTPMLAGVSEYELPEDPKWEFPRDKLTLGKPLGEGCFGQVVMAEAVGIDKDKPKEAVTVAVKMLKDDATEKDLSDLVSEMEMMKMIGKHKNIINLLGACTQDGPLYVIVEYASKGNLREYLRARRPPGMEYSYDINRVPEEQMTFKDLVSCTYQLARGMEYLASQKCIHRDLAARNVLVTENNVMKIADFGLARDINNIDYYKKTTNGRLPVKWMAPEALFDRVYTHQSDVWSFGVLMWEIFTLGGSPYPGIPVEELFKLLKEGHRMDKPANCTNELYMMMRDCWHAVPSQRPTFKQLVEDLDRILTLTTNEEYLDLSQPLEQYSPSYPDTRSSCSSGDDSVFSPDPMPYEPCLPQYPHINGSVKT

SRC = SRC (Homo sapiens, UniProt P12931); assay: as above
Chain of SRC (P12931 whole entry): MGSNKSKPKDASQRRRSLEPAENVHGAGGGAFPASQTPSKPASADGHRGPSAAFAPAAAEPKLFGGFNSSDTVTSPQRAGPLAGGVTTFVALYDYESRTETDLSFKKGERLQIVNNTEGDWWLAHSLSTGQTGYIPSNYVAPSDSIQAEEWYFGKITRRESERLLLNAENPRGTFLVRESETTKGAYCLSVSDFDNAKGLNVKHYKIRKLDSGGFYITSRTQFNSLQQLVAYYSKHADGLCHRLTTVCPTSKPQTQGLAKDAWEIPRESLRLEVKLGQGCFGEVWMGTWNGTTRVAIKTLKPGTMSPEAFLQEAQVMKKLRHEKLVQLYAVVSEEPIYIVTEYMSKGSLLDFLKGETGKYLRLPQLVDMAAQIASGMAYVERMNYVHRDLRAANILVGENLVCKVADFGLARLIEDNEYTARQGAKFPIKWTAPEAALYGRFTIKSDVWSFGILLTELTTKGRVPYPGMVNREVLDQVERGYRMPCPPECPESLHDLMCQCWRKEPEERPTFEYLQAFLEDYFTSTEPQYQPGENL

ROCK1 = ROCK1 (Homo sapiens, UniProt Q13464); assay: as above
PDGFRB = PDGFRB (Homo sapiens, UniProt P09619); assay: as above
Chain of PDGFRB (P09619 33-1106): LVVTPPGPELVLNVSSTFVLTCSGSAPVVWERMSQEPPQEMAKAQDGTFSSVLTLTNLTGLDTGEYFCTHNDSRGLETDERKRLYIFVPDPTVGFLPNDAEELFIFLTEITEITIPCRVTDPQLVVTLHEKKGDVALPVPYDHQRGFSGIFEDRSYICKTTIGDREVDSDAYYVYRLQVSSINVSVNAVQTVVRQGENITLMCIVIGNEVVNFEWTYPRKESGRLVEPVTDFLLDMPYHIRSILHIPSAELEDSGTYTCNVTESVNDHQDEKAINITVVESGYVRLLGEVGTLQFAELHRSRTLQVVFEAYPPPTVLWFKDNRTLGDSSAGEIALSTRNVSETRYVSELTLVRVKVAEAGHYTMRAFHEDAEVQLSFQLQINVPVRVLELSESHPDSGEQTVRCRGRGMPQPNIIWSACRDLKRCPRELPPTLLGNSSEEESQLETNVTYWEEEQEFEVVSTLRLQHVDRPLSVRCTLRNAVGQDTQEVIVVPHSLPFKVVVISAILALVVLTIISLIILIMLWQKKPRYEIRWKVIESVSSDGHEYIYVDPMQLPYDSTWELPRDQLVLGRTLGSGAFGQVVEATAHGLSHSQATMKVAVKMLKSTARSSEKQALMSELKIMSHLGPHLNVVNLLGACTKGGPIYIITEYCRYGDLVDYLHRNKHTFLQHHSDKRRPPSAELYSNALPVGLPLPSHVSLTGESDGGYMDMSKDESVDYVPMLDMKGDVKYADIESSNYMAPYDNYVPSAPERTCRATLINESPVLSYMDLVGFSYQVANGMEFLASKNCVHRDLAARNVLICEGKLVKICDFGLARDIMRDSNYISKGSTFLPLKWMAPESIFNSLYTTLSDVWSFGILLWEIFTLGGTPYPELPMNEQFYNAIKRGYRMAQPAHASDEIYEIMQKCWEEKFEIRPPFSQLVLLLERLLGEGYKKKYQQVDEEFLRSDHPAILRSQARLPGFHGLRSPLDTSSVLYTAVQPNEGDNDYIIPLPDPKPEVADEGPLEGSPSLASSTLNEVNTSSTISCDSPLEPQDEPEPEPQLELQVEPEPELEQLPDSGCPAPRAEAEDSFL

FGFR4 = FGFR4 (Homo sapiens, UniProt P22455); assay: as above
Chain of FGFR4 (P22455 22-802): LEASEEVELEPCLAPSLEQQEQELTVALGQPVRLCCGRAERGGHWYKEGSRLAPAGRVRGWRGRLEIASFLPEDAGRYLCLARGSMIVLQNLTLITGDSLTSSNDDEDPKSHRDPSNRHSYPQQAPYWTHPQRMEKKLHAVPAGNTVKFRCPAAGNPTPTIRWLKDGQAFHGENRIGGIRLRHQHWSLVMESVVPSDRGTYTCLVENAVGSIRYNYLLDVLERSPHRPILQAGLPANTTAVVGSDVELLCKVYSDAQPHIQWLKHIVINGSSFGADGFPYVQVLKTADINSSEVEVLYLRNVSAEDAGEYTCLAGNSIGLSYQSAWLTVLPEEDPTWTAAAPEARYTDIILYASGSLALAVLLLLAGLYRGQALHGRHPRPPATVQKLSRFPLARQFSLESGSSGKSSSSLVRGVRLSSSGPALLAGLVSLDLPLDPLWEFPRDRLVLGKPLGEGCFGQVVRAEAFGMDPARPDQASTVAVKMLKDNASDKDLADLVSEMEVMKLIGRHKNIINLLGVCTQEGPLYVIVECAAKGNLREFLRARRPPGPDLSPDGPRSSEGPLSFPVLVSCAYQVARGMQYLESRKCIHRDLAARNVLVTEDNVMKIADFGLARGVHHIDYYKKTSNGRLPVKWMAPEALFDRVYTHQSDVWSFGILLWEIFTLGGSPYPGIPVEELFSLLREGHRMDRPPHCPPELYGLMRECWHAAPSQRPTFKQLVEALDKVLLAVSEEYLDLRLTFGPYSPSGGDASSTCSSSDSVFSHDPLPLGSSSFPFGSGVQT

NMuMG cells [1] = assay: High-content microscopy EMT screen in TGFβ-treated NMuMG cells (FA, SF, FN, cell count); format: cell-based, murine; conditions: for Emax (maximal effect on cell count): compared to reference 10 μM SB-431542 = 100%; for Emax: read-out: Emax (maximal effect on cell count)
FGFR3 = FGFR3 (Homo sapiens, UniProt P22607); assay: Biochemical kinase profiling (33PanQinase radiometric assay)
TGFBR1 = target: T1, TGFBR1 (Homo sapiens, UniProt P36897); assay: as above
T1 sequence (P36897 34-503): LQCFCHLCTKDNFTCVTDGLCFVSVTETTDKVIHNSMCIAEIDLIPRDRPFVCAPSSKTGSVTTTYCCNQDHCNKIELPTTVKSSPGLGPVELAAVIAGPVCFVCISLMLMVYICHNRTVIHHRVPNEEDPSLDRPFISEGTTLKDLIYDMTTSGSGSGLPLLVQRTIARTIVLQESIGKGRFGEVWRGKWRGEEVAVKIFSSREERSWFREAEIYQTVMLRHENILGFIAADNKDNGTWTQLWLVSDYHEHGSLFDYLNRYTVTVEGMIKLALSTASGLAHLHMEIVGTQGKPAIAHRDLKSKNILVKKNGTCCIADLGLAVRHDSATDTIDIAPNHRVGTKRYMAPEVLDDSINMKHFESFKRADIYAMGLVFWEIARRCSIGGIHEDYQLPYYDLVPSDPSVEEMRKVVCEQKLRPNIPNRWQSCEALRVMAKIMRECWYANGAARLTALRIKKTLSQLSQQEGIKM

TGFBR2 = TGFBR2 (Homo sapiens, UniProt P37173); assay: as above
PDGFRA = PDGFRA (Homo sapiens, UniProt P16234); assay: as above
Chain of PDGFRA (P16234 24-1089): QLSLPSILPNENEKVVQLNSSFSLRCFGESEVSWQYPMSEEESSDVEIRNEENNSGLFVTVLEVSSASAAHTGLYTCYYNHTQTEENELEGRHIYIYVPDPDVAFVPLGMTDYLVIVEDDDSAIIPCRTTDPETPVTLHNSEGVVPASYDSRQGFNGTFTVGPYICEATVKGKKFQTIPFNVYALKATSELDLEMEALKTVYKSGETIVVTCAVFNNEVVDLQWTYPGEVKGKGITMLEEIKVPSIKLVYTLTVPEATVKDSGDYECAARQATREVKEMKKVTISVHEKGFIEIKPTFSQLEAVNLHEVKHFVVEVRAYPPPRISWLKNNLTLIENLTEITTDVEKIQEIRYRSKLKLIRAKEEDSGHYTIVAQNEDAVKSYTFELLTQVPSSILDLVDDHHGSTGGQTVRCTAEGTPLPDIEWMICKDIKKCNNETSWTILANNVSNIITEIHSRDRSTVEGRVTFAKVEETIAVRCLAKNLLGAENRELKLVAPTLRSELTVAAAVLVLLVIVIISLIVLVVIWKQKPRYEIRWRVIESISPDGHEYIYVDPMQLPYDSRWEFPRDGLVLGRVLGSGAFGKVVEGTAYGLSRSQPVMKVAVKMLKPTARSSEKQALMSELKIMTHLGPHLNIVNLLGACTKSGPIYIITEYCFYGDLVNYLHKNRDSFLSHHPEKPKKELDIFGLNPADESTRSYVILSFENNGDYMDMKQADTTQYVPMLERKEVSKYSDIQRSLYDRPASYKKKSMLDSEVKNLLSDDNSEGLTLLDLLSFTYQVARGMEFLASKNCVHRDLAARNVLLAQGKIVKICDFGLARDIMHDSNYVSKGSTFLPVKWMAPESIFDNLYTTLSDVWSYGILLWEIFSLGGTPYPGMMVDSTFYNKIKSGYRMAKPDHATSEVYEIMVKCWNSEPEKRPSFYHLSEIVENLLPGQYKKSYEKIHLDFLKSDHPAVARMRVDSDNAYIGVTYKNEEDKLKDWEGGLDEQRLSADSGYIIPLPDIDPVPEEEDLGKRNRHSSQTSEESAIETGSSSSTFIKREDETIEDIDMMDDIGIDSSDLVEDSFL

ROCK = ROCK cellular assay (MLC Thr18/Ser19 phosphorylation ELISA in A7r5 cells); format: cell-based, rat; conditions: 90 min compound
[2] = test system: SMAD3 phosphorylation (TGFBR activity); assay: Quantification of SMAD3 phosphorylation in TGFβ-treated NMuMG cells (immunoblot, LI-COR); format: cell-based, murine; conditions: one day TGFβ plus inhibitor
Method: NMuMG cells plated the day before were treated for one day with TGFβ and DMSO or an inhibitor as described in the figure legends. Cells were washed with PBS and lyzed in RIPA buffer (150 mM NaCl, 2 mM MgCl, 2 mM CaCl2, 0.5% Na-deoxycholate, 10% glycerol, 1% NP-40, 0.1% SDS, 50 mM Tris pH8 supplementary with 1 mM DTT, 10 mM NaF, 1 mM sodium orthovanadate and protease inhibitor cocktail (Roche)). The proteins were resolved using SDS-PAGE and transferred to PVDF membrane. For quantitative analysis of SMAD phosphorylation, the membrane was probed with p-SMAD2/3 and GAPDH specific primary antibodies followed by fluorescent secondary antibodies (LI-COR Biosciences). The signal was captured and quantified with the Odyssey CLx Imaging system and ImageJ software form 3 independent experiments.

Py2T cells = assay: High-content microscopy EMT assay in TGFβ-treated Py2T breast cancer cells; format: cell-based, murine; conditions: for Emax (maximal effect on cell count): compared to reference 10 μM SB-431542 = 100%
NMuMG cells [3] = assay: E-cadherin, ZO1 and vimentin immunofluorescence in TGFβ-treated NMuMG cells; format: cell-based, murine; conditions: four days TGFβ plus inhibitor
Method: NMuMG and Py2T cells were trypsinized, washed, seeded at 1000 cells/well, resuspended in 40 μl growth medium with a Multidrop-384 (Titertek) in 384-well microplates (Greiner, 781091), and grown overnight at 37°C, 5% CO2. The next day, 111 μl growth medium was added with the Multidrop-384 to 1 μl of the 2 mM library compounds of which 10 μl was transferred with a 384-well pipettor (VPrep, Agilent, US) to the cell assay plate and equilibrated for 10 min (final compound concentration 3 μM). For screenings at 300 nM or 30 nM, the compounds were diluted 1:10 or 1:100 in growth medium, respectively, before use. […]
Cells were imaged using the automated epifluorescence microscope ImageXpress Micro from Molecular Devices (Sunnyvale CA, USA) equipped with a plate-loading robot (CRS Catalyst, Thermo Scientific). […] The images were automatically analyzed by MetaXpress and segmented into sub-cellular structures based on morphological features such as object size and fluorescence distribution. Fluorescence distribution was a measure of the threshold intensity above local background and was adjusted for all parameters (nuclei, FA, SF and FN) by means of the respective positive and negative controls to compensate for inter-experimental variations between the different screening batches. […] Vimentin was quantified similar to SF and FN using the Angiogenesis module. […]

[4] = Mus musculus, 96 h, NMuMG, TGFβ1 2 ng/ml plus compound, 4 days, parameter decreased by 50%, read-out: FN IC50 (fibronectin patch formation)
[5] = Mus musculus, 96 h, NMuMG, TGFβ1 2 ng/ml plus compound, 4 days, parameter decreased by 50%, read-out: SF IC50 (stress fibers)
[6] = Mus musculus, NMuMG, cell count decreased by 50% compared to DMSO control, read-out: Tox IC50
[7] = Mus musculus, Py2T, cell count decreased by 50% compared to DMSO control, read-out: Tox IC50
[8] = Py2T, TGFβ plus compound, 4 days
[9] = Mus musculus, read-out: CCI IC50 (cell count increase)

Chain of FGFR1 (P11362 22-822): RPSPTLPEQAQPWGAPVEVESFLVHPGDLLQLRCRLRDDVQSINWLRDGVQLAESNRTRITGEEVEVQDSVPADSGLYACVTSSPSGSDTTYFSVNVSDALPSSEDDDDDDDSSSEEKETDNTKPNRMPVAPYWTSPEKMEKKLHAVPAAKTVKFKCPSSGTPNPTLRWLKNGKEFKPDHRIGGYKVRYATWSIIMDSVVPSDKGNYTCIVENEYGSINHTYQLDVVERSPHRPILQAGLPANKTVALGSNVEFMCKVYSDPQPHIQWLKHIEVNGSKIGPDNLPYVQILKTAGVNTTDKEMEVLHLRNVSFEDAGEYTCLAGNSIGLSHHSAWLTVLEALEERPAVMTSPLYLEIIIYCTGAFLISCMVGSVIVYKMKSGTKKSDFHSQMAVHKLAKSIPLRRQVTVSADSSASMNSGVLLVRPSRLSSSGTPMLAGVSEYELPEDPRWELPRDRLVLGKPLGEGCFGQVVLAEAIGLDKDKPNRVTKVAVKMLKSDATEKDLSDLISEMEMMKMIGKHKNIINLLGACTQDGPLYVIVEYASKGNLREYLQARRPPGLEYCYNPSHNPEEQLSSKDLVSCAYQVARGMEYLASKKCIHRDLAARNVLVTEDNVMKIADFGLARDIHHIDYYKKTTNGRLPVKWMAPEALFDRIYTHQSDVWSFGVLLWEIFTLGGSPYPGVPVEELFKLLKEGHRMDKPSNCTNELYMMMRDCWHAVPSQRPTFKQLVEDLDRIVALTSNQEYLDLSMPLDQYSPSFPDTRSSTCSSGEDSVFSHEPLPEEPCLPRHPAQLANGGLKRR

IC50 (FGFR1) [nM]	IC50 (EGFR) [nM]	IC50 (FGFR2) [nM]	IC50 (SRC) [nM]	IC50 (PDGFRB) [nM]	IC50 (FGFR4) [nM]	IC50 (NMuMG cells [1]; [4]) [nM]	IC50 (NMuMG cells [1]; [5]) [nM]	IC50 (FGFR3) [nM]	IC50 (PDGFRA) [nM]	IC50 (NMuMG cells [1]; [9]) [nM]	Structure (SMILES)	IC50 (NMuMG cells [1]; [6]) [nM]	Emax (maximal effect on cell count) (NMuMG cells [1]; NMuMG)	SMAD3 phosphorylation (p-SMAD3/GAPDH) [2]	IC50 (Py2T cells; [7]) [nM]	Emax (maximal effect on cell count) (Py2T cells; Py2T)	Emax (NMuMG cells [1]; Mus musculus) [%]	further results
5630	2120	1010	1070	1.9	> 10000	2050	2560	9090	618		COCCOc1ccc2c(c1)ncn2-c1ccc2cccc(N3CCC(N)CC3)c2n1 [CP673451]	3590	n.m.					IC50 (ROCK2): 1000 nM; IC50 (ROCK1): 3370 nM; FA IC50 (focal adhesion formation) (NMuMG cells [1]; NMuMG, TGFβ1 2 ng/ml plus compound, 4 days, parameter decreased by 50%): n.m.; IC50 (TGFBR1): > 10000 nM; IC50 (TGFBR2): > 10000 nM; IC50 (ROCK; Rattus norvegicus, 1.5 h): 1500 nM
						948	1170			291	O=c1[nH]c(=O)n([C@H]2C[C@H](O)[C@@H](CO)O2)cc1I [Idoxuridine]	> 25000		unchanged	6350	n.m.	12.9	FA IC50 (focal adhesions) (Py2T cells; [8]): n.m.; FN IC50 (fibronectin patches) (Py2T cells; [8]): n.m.; SF IC50 (stress fibers) (Py2T cells; [8]): n.m.
> 10000	> 10000	> 10000	> 10000	> 10000	> 10000	195	184	> 10000	> 10000	584	NC(=O)c1ccc(-c2nc(-c3ccc4c(c3)OCO4)c(-c3ccccn3)[nH]2)cc1 [SB-431542]	> 25000		blocked	7460		100	IC50 (Py2T cells; Mus musculus, 96 h, Py2T, TGFβ plus compound, 4 days, read-out: FA IC50 (focal adhesions)): 156 nM; IC50 (Py2T cells; Mus musculus, 96 h, Py2T, TGFβ plus compound, 4 days, read-out: FN IC50 (fibronectin patches)): 167 nM; IC50 (Py2T cells; Mus musculus, 96 h, Py2T, TGFβ plus compound, 4 days, read-out: SF IC50 (stress fibers)): 175 nM; IC50 (Py2T cells; Mus musculus, Py2T, TGFβ-induced EMT, read-out: IC50 for reduction of EMT markers): ~200 nM; IC50 (Py2T cells; [9]): 140 nM; Emax (Py2T cells; Mus musculus, read-out: Emax (maximal effect on cell count)): 100%; IC50 (NMuMG cells [1]; Mus musculus, 96 h, NMuMG, TGFβ1 2 ng/ml plus compound, 4 days, parameter decreased by 50%, read-out: FA IC50 (focal adhesion formation)): 243 nM; IC50 (NMuMG cells [1]; Mus musculus, NMuMG, TGFβ treatment, proof of concept, read-out: IC50 in all three parameters (focal adhesion formation, stress fibers, fibronectin deposition)): ~200 nM; IC50 (NMuMG cells [1]; Mus musculus, NMuMG, mean of IC50 values obtained for FA, SF, FN, read-out: EMT (FA/SF/FN) combined IC50): 388 nM; effect on TGFβ-induced loss of E-cadherin and ZO1 from junctions and vimentin filament formation (NMuMG cells [3]): completely blocked
											C[C@@H](N)[C@H]1CC[C@H](C(=O)Nc2ccncc2)CC1.Cl.Cl [Y-27632 2HCl]		17.6%	unchanged		43.8%		IC50 (Py2T cells; Py2T, TGFβ plus compound, 4 days, read-out: FA IC50 (focal adhesions)): 2150 nM; IC50 (Py2T cells; Py2T, TGFβ plus compound, 4 days, read-out: FN IC50 (fibronectin patches)): 4830 nM; IC50 (Py2T cells; Py2T, TGFβ plus compound, 4 days, read-out: SF IC50 (stress fibers)): 1710 nM; IC50 (Py2T cells; Py2T, cell count decreased by 50% compared to DMSO control, read-out: Tox IC50): > 25000 nM; IC50 (Py2T cells; Py2T, compared to 10 μM SB-431542, read-out: CCI IC50 (cell count increase)): 770 nM; IC50 (NMuMG cells [1]; NMuMG, TGFβ1 2 ng/ml plus compound, 4 days, parameter decreased by 50%, read-out: FA IC50 (focal adhesion formation)): 2650 nM; IC50 (NMuMG cells [1]; NMuMG, TGFβ1 2 ng/ml plus compound, 4 days, parameter decreased by 50%, read-out: FN IC50 (fibronectin patch formation)): 1190 nM; IC50 (NMuMG cells [1]; NMuMG, TGFβ1 2 ng/ml plus compound, 4 days, parameter decreased by 50%, read-out: SF IC50 (stress fibers)): 1310 nM; IC50 (NMuMG cells [1]; NMuMG, cell count decreased by 50% compared to DMSO control, read-out: Tox IC50): > 25000 nM; IC50 (NMuMG cells [1]; NMuMG, cell count increased by 50% compared to 100% with 10 μM SB-431542, read-out: CCI IC50 (cell count increase)): 1110 nM; IC50 (NMuMG cells [1]; NMuMG, mean of IC50 values obtained for FA, SF, FN, read-out: EMT (FA/SF/FN) combined IC50): 1720 nM; IC50 (ROCK): 430 nM
